Measured values from patent US20020147353A1, “Novel flavonoids” (Vereniging christelijk wetenschappelijk anderwijs, priority 1999, published 2002).

Columns and labels:
[1] = TEAC model (Trolox equivalent antioxidant capacity); conditions: concentration of Trolox equivalent to 1 mM test compound; mean ± S.D., n = 3-5
Method: A solution of 2,2′-azino-bis(3-ethylbenzthiazoline-6-sulfonic acid) (1.23 mg/mL) and azobisamidinepropane (3.96 mg/mL) in 50 mM phosphate buffer (pH=7.4) was heated at 70° C. for 20 min. The amount of ABTS radicals was measured by determination of the absorbance at 734 nm.
Stock solutions of the flavonoids were freshly prepared in nitrogen-purged DMSO and nanopure water (1:1) just before use. A calibration curve of Trolox ((+/−)-6-hydroxy-2,5,7,8-tetramethyl-chroman-2-carboxylic acid) was made in a concentration range from 0 to 20 μM. A mixture of 50 μL test compound and 950 μL ABTS^−+ solution was incubated at 37° C. for 5 min. Subsequently the absorbance at 734 nm was determined on a UV/VIS Spectrophotometer.
The antioxidant-induced decrease in absorbance is directly related to the antioxidant capacity of the compound (solution) being tested.
The Trolox equivalent antioxidant capacity (TEAC) is defined as the concentration (mM) of Trolox having an antioxidant capacity equivalent to 1 mM of the test compound.

[2] = system: iron/ascorbate induced lipid peroxidation; test: Lipid peroxidation (LPO) model, heat-treated hepatic microsomes, TBA reactive substances; assay type: biochemical; conditions: rat hepatic microsomes, reaction started with 10 uM FeSO4; mean ± s.e.m., n = 3-5
Method: Experiment 1: Lipid Peroxidation Model
Preparation of hepatic microsomes.
Male Wistar rats (200-220 g) obtained from Harlan Nederland B.V. (Horst, The Netherlands) were sacrificed by decapitation. Livers were removed and homogenized in ice-cold phosphate buffer (50 mM+0.1 mM EDTA, pH=7.4, 1:2 w/v). The homogenate was centrifuged at 10 000× g (20 min at 4° C.). Subsequently, the supernatant was centrifuged at 100 000× g for 60 min (4° C.). The pellet was resuspended in phosphate buffer and centrifuged again at 100 000× g (60 min, 4° C.). Finally the microsomal pellet was resuspended in phosphate buffer (2 g liver/ml) and 1 mL aliquots were stored at −80° C.
Microsomes were thawed and resuspended in ice-cold Tris-HCl buffer (50 mM, pH=7.4 at 37° C.) and washed by centrifugation. The pellet was resuspended in 2 mL 50 mM Tris-HCl buffer and heated to 100° C. for at least 2 min to remove all enzymatic factors just before resuspending and diluting it in ice-cold Tris buffer to 1.5 mg/mL.
Stock solutions of the flavonoids were freshly prepared in nitrogen-purged DMSO and nanopure water (1:1) just before use. The reaction was started by adding 10 uM freshly prepared FeSO4 in nitrogen-purged nanopure water. LPO was assayed by measuring thiobarbituric acid (TBA) reactive substances. At t=0, 5, 10, 15, 30, 45 and 60 min an 0.3 mL aliquot of the incubation was mixed with 2 mL of an ice-cold TBA-trichloroacetic acid-HCl-butylhydroxytoluene (BHT) solution to stop the reaction. After heating and centrifugation the absorbance at 535 vs 600 nm was determined. The TBA-trichloroacetic acid-HCl-butylhydroxytoluene solution was prepared by dissolving 41.6 mg TBA/10 ml trichloroacetic acid (16.8% w/v in 0.125 N HCl). To 10 ml TBA-trichloroacetic acid-HCl 1 ml BHT (1.5 mg/ml ethanol) was added.
The IC50 was determined by measuring the % LPO inhibition at several concentrations and interpolating the 50% inhibition point.

[3] = system: isolated mouse left atrium; test: Isolated mouse left atrium model: protection against doxorubicin-induced negative inotropy; design: key: NP: No protection; conditions: 250 μM flavonoid with 35 μM doxorubicin, electrically paced mouse left atrium
Method: Experiment 3: Isolated Mouse Left Atrium Model
In order to determine the cardioprotective properties of the compounds in vitro, the protection against doxorubicin-induced negative inotropy was studied, using the isolated mouse left atrium model.
The example compounds were tested for their protective effect on the negative inotropic action of doxorubicin on the isolated mouse left atrium. The testing model has been described earlier (de Jong et al.Ress Comm Chem Pathol Pharmacol 68, 275-289 (1990). In short, left atria were isolated from male Balb/c mice (18-22 g) and stimulated with square wave pulses of 3 ms duration at a frequency of 4 Hz. Incubation with […] doxorubicin causes a decrease in inotropy of 50% (after 1 h). Atria were incubated with 35 μM doxorubicin and 250 μM flavonoid. Inotropy was measured and expressed as % basal contractile force relative to t=0.

[4] = system: OVCAR-3 cells; test: Antitumor activity of flavonoids, SRB growth inhibition assay; assay type: cell-based; conditions: 72 h
Method: Experiment 6: Antitumor Activity of Flavonoids
Next to the use of flavonoids as medicaments in free radical mediated diseases, the presence of anti-tumor activity has been reported. Quercetin is the best known example (Molnar et al. Neoplasma, 28: 11-17 (1981)). Because of the possible use of these compounds in chemotherapy, it was checked whether the compounds affected cell growth.
On day 0 cultured OVCAR-3 cells were plated at a density of 5000 cells/well. After 24 h (day 1) the example compounds were added and after incubation of 72 h at 37° C. (day 4), growth inhibitory effects were evaluated with the standard SRB (sulforhodamine B) assay (Skehan et al. J. Natl. Cancer Inst., 82: 1107-1112 (1990)).

[5] = system: MCF-7 cells; test: Interference with antitumor activity of doxorubicin, MTT assay; assay type: cell-based
Method: (§1) Experiment 5: Interference with the Antitumor Activity of Doxorubicin Because of the possible use of these compounds as adjuvants in the chemotherapy, it was checked whether the compounds influenced the negative effect of doxorubicin on cell growth. […] This observation further underlined the use of these compounds as adjuvant therapy in the protection of the side effects of cytostatics. On day 0 cultured OVCAR-3, MCF-7 and A2780 cells were plated at a density of 5000 cells/well for OCAR-3 and MCF-7 and 3000 cells/well for A2780 cells. […] After incubation of 96 h at 37° C. (day 5), growth inhibitory effects were evaluated using the standard MTT assay.

[6] = system: A2780 cells; test: as above; assay type: cell-based
Method: as §1

[7] = system: OVCAR-3 cells; test: as above; assay type: cell-based
Method: as §1

[8] = system: guinea pigs exposed to ozone; test: Ozone exposure model for COPD, pulmonary neutrophil influx; assay type: in vivo; conditions: 1 ppm ozone 12 h then 12 h air, 68 mg/kg i.p.
Excerpt: Chronic Obstructive Pulmonary Disease is associated with oxidative stress. There are strong indications that antioxidant therapy may be beneficial in COPD ([…] et al., Am. J. Resp. Crit. Care Med. 156, 341-358 (1997)). Not only the number of exacerbations decreases, but also the progressive decrease in lung function becomes less severe under treatment with an antioxidant like N-acetylcysteine. An animal model for COPD is ozone exposure. In contrast to asthma, COPD is characterized by a neutrophil influx. […] We studied the protective effect of compound 9i in this ozone exposure model. […] To this end compound 9[…].) was given (24 h, 12 h before ozone exposure and daily during the exposure to ozone/air) to guinea pigs that were exposed to 1 ppm ozone for 12 h which was followed by 12 h of air.

[9] = system: doxorubicin-induced cardiotoxicity; test: Protection against doxorubicin-induced cardiotoxicity in vivo (ST-interval in ECG, telemetry); conditions: mice
[10] = system: alloxan-induced diabetic rats; test: Antidiabetic action in alloxan-induced diabetic rats; assay type: in vivo; conditions: 68 mg/kg i.p. for two weeks
Method: In order to study the antidiabetic action of compound 9i (see FIG. 1 and the section “syntheses” above), the compound was studied in alloxan-induced diabetic rats. […] These diabetic rats were subsequently treated with compound 9i for two weeks (at 68 mg/kg, i.p.).

Row | IC50 [2] [µM] | IC50 ([4]; Homo sapiens) [µM] | SMILES | TEAC [1] [mM] | Atrium protection (250 μM) [3] | other results
1 | 2.5 ± 0.8 | – | COc1ccc2c(=O)cc(-c3ccc(O)c(O)c3)oc2c1 [Compound 8b, 3′,4′-dihydroxy-7-methoxyflavone] | 3.3 ± 0.2 | – | melting point: > 240 °C
2 | 1.8 ± 1 | – | O=c1c(O)c(-c2ccc(O)c(O)c2)oc2ccccc12 [Compound 9a, 3′3,3′,4′-trihydroxyflavone] | 4.5 ± 0.5 | NP^1 | IC50 [4]: 21 ± 2.4 µM
3 | 1.3 ± 0.7 | – | COc1c(-c2ccc(O)c(O)c2)oc2ccccc2c1=O [Compound 9b, 3′4′-dihydroxy-3-methoxyflavone] | 4.4 ± 0.3 | NP | IC50 [4]: 2.2 ± 0.4 µM
4 | 0.6 ± 0.1 | 44.2 ± 20.1 | O=c1c(OCCO)c(-c2ccc(O)c(O)c2)oc2ccccc12 [Compound 9c, 3′,4′-dihydroxy-3-hydroxyethoxyflavone] | 4.4 ± 0.4 | NP | –
5 | 2.8 ± 0.9 | – | O=c1c(O[C@@H]2O[C@H](CO)[C@@H](O)[C@H](O)[C@H]2O)c(-c2ccc(O)c(O)c2)oc2ccccc12 [Compound 9i, 3′,4′-dihydroxy-3-glucoseflavone] | 4.9 ± 0.3 | 46% | 9i 100 μM growth % ([5]; MCF-7, 100 μM, 96 h): 83.8%; 9i 100 μM growth % ([6]; A2780, 100 μM, 96 h): 97.7%; 9i 100 μM growth % ([7]; OVCAR-3, 100 μM, 96 h): 86.8%; pulmonary neutrophil influx [8]: could be prevented; potency as protector against doxorubicin-induced cardiotoxicity relative to monoHER ([9]; 68 mg/kg i.p.): at least 5 times; protection against doxorubicin-induced cardiotoxicity in vivo (in words) ([9]; 9i 68 mg/kg i.p., doxorubicin 4 mg/kg i.v. weekly, 6 weeks): significantly potent activity; glucose plasma level compared to controls [10]: decrease in glucose plasma level
6 | – | – | COc1cccc2c1C(=O)c1c(O)c3c(c(O)c1C2=O)C[C@@](O)(C(=O)CO)C[C@@H]3O[C@H]1C[C@H](N)[C@H](O)[C@H](C)O1 [Dox, doxorubicin, reference compound] | – | – | IC50 ([5]; Homo sapiens, MCF7, MCF-7, 96 h, read-out: Dox IC50): 0.004 µM; IC50 ([6]; Homo sapiens, A2780, 96 h, read-out: Dox IC50): 0.0038 µM; IC50 ([7]; Homo sapiens, OVCAR-3, 96 h, read-out: Dox IC50): 0.0065 µM
7 | 9 | 126 ± 50.5 | O=c1c(O)c(-c2ccc(O)c(O)c2)oc2cc(O)cc(O)c12 [Quercetin, reference compound] | – | – | –
8 | 12.7 ± 3.7 | – | C[C@@H]1O[C@@H](OC[C@H]2O[C@@H](Oc3c(-c4ccc(O)c(O)c4)oc4cc(OCCO)cc(O)c4c3=O)[C@H](O)[C@@H](O)[C@@H]2O)[C@H](O)[C@H](O)[C@H]1O [monoHER, 7-monohydroxyethylrutoside, reference compound] | 3.0 ± 0.2 | 52% | –

Row | SMILES | IC50 [2] [µM] | IC50 ([4]; Homo sapiens) [µM] | TEAC [1] [mM] | Atrium protection (250 μM) [3] | other results
9 | COc1c(-c2ccc(O)c(O)c2)oc2cc(O)ccc2c1=O [Compound 10b, 3-methoxy-7,3′,4′-trihydroxyflavone] | 1.6 ± 0.7 | 15.8 ± 1.3 | 5.9 ± 0.7 | NP | –
